We go through 3 molecules from patent publication US20240175039A1, “ENGINEERING PROBIOTIC FOR DEGRADING URIC ACID, AND CONSTRUCTION METHOD THEREFOR AND USE THEREOF” (SHANDONG UNIVERSITY, priority 2022, published 2024).

For series [1], the target named is T1, Bacillus subtilis PucL^MM (PucL variant PucL^M, Asp-214 to Val and Gln-438 to Arg (D44V and Q268R in PucL^T), SEQ ID NO: 1, co-expressed with PucM, SEQ ID NO: 2 (Bacillus subtilis, UniProt O32141, D214V/Q438R)).
T1 sequence (O32141 1-494 D214V/Q438R): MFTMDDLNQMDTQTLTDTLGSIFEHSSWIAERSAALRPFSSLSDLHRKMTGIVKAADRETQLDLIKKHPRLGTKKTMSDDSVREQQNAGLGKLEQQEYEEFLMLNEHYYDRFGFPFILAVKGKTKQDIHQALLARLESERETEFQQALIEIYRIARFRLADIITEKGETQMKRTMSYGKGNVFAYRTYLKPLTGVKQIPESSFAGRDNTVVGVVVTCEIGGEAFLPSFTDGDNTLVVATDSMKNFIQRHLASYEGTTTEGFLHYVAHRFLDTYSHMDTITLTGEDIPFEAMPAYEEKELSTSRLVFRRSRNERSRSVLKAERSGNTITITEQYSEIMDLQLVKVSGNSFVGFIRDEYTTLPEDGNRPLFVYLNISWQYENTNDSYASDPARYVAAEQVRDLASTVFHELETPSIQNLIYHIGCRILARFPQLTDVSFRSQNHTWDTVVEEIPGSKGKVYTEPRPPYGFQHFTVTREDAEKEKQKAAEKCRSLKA
T1 sequence (O32142 1-114 partner): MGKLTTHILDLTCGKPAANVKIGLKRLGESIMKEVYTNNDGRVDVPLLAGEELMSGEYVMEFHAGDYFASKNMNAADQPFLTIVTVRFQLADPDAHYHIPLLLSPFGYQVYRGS
As to the kind of experiment: UA degradation kinetics (Km, Vmax), cell extract of EcN::pMCS2-Ptrc-pucL^MM. The class given is biochemical. Conditions: cell extracts. From the text:
(§1) The urate oxidase gene is specifically PucL^M and PucM, whose nucleotide sequences are shown as SEQ ID NO: 1 and SEQ ID NO: 2, respectively; they act together, and in the present invention, they are named PucL^MM.
(§2) The pucL (Gene ID: 936669) and pucM (Gene ID: 937977) genes from Bacillus subtilis were codon-optimized and synthesized by Beijing Genomics Institute (BGI, Beijing). Asp-214 and Gln-438 of PucL were mutated to Val and Arg, respectively. The mutated pucL was named as pucL^M, and pucL^M was codon-optimized and synthesized by Beijing Genomics Institute (BGI, Beijing). The vhb gene (Protein ID: WP_019959060.1) from Vitreoscilla sp. C1 was codon-optimized and synthesized by Beijing Genomics Institute (BGI, Beijing). The ygfU (Gene ID: 949017) and the katG (Gene ID: 948431) genes were PCR amplified from E. coli MG1655 genomic DNA.
(§3) (1) UA was measured in a buffer solution using a spectrophotometer by directly measuring the absorbance at 293 nm. […] Subsequently, appropriate dilutions were performed for measurement, and UA concentration was determined.
(§4) The activity of PucL^T can be enhanced by the D44V and Q268R mutations. […] Determined by using cell extracts, the Vmax of PucL^MM increased by approximately 1.8 times compared to PucLM. […]

In series [2] the test system is Bacillus subtilis PucLM (complete PucL co-expressed with PucM, wild type; PucM SEQ ID NO: 2). As to the kind of experiment: UA degradation kinetics (Km, Vmax), cell extract of EcN::pMCS2-Ptrc-pucLM. The class given is biochemical.
From the text: as §2
(§5) (1) UA was measured in a buffer solution using a spectrophotometer by directly measuring the absorbance at 293 nm. Firstly, UA standard solutions of 0, 10 μM, 15 μM, 20 μM, 30 μM, 40 μM, 50 μM, 60 μM, and 70 μM were prepared to plot an UA concentration standard curve, obtaining a curve R2 of 0.9997. Subsequently, appropriate dilutions were performed for measurement, and UA concentration was determined.
The activity of PucL^T can be enhanced by the D44V and Q268R mutations. We directly mutated two sites in the complete PucL (PucLM) and co-expressed them with PucM in EcN (EcN::pMCS2-Ptrc-pucL^MM). Determined by using cell extracts, the Vmax of PucL^MM increased by approximately 1.8 times compared to PucLM. […] Due to the increase in Km, the UA degradation ability of the whole cell of EcN::pMCS2-Ptrc-pucL^MM was weakened when the concentration of UA was low (FIG. 2C).

Substrate in series [3]: O=c1[nH]c(=O)c2[nH]c(=O)[nH]c2[nH]1
As to the kind of experiment: UA degradation kinetics (Km, Vmax), cell extract of EcN::pMCS2-Ptrc-pucL^T. Type of series: biochemical, Bacillus subtilis. The following applies: other: cell extract, recombinant EcN::pMCS2-Ptrc-pucL^T.
From the text: as §2, §5
The UriC domain of PucL (PucL^T) catalyzes step 1 in the UA degradation (FIG. 1), and steps 2 and 3 can occur spontaneously. […]
as §4

Substrate in series [4]: O=c1[nH]c(=O)c2[nH]c(=O)[nH]c2[nH]1
As to the kind of experiment: UA degradation kinetics (Km, Vmax), cell extract of EcN::pMCS2-Ptrc-pucL^MM. The following applies: other: cell extract, recombinant EcN::pMCS2-Ptrc-pucL^MM. Type of series: biochemical, Bacillus subtilis.
From the text: as §1, §2, §3, §4

[5] abbreviates: cell extract, recombinant EcN::pMCS2-Ptrc-pucLM.

As a reminder, the Km is the concentration of substrate that gives half-maximal velocity. What is called Vmax is the rate approached at saturating substrate. In the case of `O=c1[nH]c(=O)c2[nH]c(=O)[nH]c2[nH]1` [UA, uric acid], in series [1], the “Km increase of PucL^MM compared to PucLM” value is on record as “approximately 2.0 times” and the “Vmax increase of PucL^MM compared to PucLM” value is listed as “approximately 1.8 times”. In series [2] (setting [5]), the Michaelis-Menten constant (Km) was 17.2 µM and the Vmax was found to be 13.88 µM/mg/min. In series [2] (cell extracts), the “Km of PucLM compared with PucL^T” value is “significantly reduced” and the “Vmax of PucLM compared with PucL^T” value is “similar”.

B1: Bacillus subtilis PucL^T (UriC domain of PucL, urate oxidase) (Bacillus subtilis subsp. subtilis str. 168) (protein)
chain: MKRTMSYGKGNVFAYRTYLKPLTGVKQIPESSFAGRDNTVVGVDVTCEIGGEAFLPSFTDGDNTLVVATDSMKNFIQRHLASYEGTTTEGFLHYVAHRFLDTYSHMDTITLTGEDIPFEAMPAYEEKELSTSRLVFRRSRNERSRSVLKAERSGNTITITEQYSEIMDLQLVKVSGNSFVGFIRDEYTTLPEDGNRPLFVYLNISWQYENTNDSYASDPARYVAAEQVRDLASTVFHELETPSIQNLIYHIGCRILARFPQLTDVSFQSQNHTWDTVVEEIPGSKGKVYTEPRPPYGFQHFTVTREDAEKEKQKAAEKCRSLKA
Take B1: in series [3], the Km amounted to 61.03 µM and the Vmax amounted to 12.3 µM/min/mg.

B2: Bacillus subtilis PucL^MM (PucL variant PucL^M, Asp-214 to Val and Gln-438 to Arg (D44V and Q268R in PucL^T), SEQ ID NO: 1, co-expressed with PucM, SEQ ID NO: … (protein)
chain: T1 sequence (O32141 1-494 D214V/Q438R)
For B2, in series [4], the Km worked out at 52.54 µM and the Vmax was found to be 38.6 µM/min/mg.
